Assay results taken from US9144557B2, “Hematopoietic growth factor mimetic small molecule compounds and their uses” (Ligand Pharmaceuticals Inc., priority 2009, dated 2015).

The compounds below were run on UT7/EPO Cell line (assay: Cell Proliferation Assay (UT7/EPO, ViaLight Plus)). Conditions: proliferative effect; compounds at 10 uM; UT7/EPO cells starved of EPO overnight; 72 hours at 37° C.; ViaLight Plus kit.
Type: cell-based, human
How it was run: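 UT7/EPO human leukemia cells (endogenous EPO receptor, EPO-dependent growth) were EPO-starved overnight, then exposed to compounds at 10 uM for 72 hours at 37° C. Proliferation was read out by ATP-based luminescence (ViaLight Plus).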

Compound | Activity (%)
Cc1ccc(C(=O)Nc2ccc(Nc3ccc(NC(=O)c4ccc(N5CCC(O)CC5)cc4)cc3)c(F)c2)n1C [Compound 760, N-(3-Fluoro-4-((4-(4-(4-hydroxypiperidin-1-yl)benzamido)phenyl)amino)phenyl)-1,5-dimethyl-1H-pyrrole-2-carboxamide] | 21%
O=C(Nc1ccc(Nc2ccc(NC(=O)c3ccc4c(ccn4CCO)c3)cc2)cc1)c1ccc(N2CCC(O)CC2)cc1 [Compound 775] | 22%
Cc1cc(C(=O)Nc2ccc(Nc3ccc(NC(=O)c4ccc(N5CCC(O)CC5)cc4)cc3)cc2)c(C)[nH]1 [Compound 790] | 18%
Cn1cccc1C(=O)Nc1ccc(Nc2ccc(NC(=O)c3ccc(N4CCC(CO)CC4)cc3)cc2)cc1 [Compound 800, N-(4-((4-(4-(4-Hydroxymethylpiperidin-1-yl)benzamido)phenyl)amino)phenyl)-1-methyl-1H-pyrrole-2-carboxamide] | 23%
Cn1cccc1C(=O)Nc1ccc(Nc2ccc(NC(=O)c3ccc(N4CCC(O)CC4)c(F)c3)cc2)cc1 [Compound 815, N-(4-((4-(3-Fluoro-4-(4-hydroxypiperidin-1-yl)benzamido)phenyl)amino)phenyl)-1-methyl-1H-pyrrole-2-carboxamide] | 17%
CCOC(=O)Cn1c(Cl)ccc1C(=O)Nc1ccc(Nc2ccc(NC(=O)c3ccc(N4CCC(O)CC4)cc3)cc2)cc1 [Compound 830, Ethyl 2-(2-chloro-5-((4-((4-(4-(4-hydroxypiperidin-1-yl)benzamido)phenyl)amino)phenyl)carbamoyl)-1H-pyrrol-1-yl)acetate] | 15%
O=C(Nc1ccc(Nc2ccc(NC(=O)c3cc[nH]c3)cc2)c(F)c1)c1ccc(N2CCC(O)CC2)cc1 [Compound 860, N-(4-((2-Fluoro-4-(4-(4-hydroxypiperidin-1-yl)benzamido)phenyl)amino)phenyl)-1H-pyrrole-3-carboxamide] | 17%
N#Cc1cc(NC(=O)c2ccc(N3CCC(C(F)(F)F)CC3)cc2)ccc1Nc1ccc(NC(=O)c2cc[nH]c2)cc1 [Compound 885, N-(4-((2-Cyano-4-(4-(4-trifluoromethylpiperidin-1-yl)benzamido)phenyl)amino)phenyl)-1H-pyrrole-3-carboxamide] | 21%
CCn1c(C)ccc1C(=O)Nc1ccc(Nc2ccc(NC(=O)c3ccc(N4CCC(O)CC4)cc3)cc2)cc1 [Compound 900] | 24%
Cn1cccc1C(=O)Nc1ccc(Oc2ccc(NC(=O)c3ccc(N4CCC(O)CC4)cc3)cc2)cc1 [Compound 915, N-(4-(4-(4-(4-Hydroxypiperidin-1-yl)benzamido)phenoxy)phenyl)-1-methyl-1H-pyrrole-2-carboxamide] | 17%
Cn1ccc2cc(C(=O)Nc3ccc4c(cnn4-c4ccc(NC(=O)C5CC5)cc4)c3)ccc21 [Compound 930, N-(1-(4-(Cyclopropanecarboxamido)phenyl)-1H-indazol-5-yl)-1-methyl-1H-indole-5-carboxamide] | 12%
O=C(Nc1ccc(N2CCC(O)CC2)cc1)c1ccc2c(cnn2-c2ccc(NC(=O)C3CC3)cc2)c1 [Compound 945, 1-(4-(Cyclopropanecarboxamido)phenyl)-N-(4-(4-hydroxypiperidin-1-yl)phenyl)-1H-indazole-5-carboxamide] | 10%
O=C(Nc1ccc2c(ccn2-c2ccc(C(=O)NC3CC3)cc2)c1)c1ccc2c(ccn2CCN2CCOCC2)c1 [Compound 960, N-(1-(4-(Cyclopropylcarbamoyl)phenyl)-1H-indol-5-yl)-1-(2-morpholinoethyl)-1H-indole-5-carboxamide] | 17%
O=C(O)CNC(=O)Cn1ccc2cc(NC(=O)c3ccc(-n4ccc5cc(NC(=O)c6ccc(N7CCC(O)CC7)cc6)ccc54)cc3)ccc21 [Compound 975] | 17%
O=C(Nc1ccc(-n2ncc3cc(O)ccc32)cc1)c1ccc(N2CCC(O)CC2)cc1 [Compound 990, N-(4-(5-(Hydroxy)-1H-indazol-1-yl)phenyl)-4-(4-hydroxypiperidin-1-yl)benzamide] | 10%
O=C(Nc1ccc2c(cnn2-c2ccc(NC(=O)c3cnc4cc[nH]c4c3)cc2)c1)c1ccc(N2CCC(O)CC2)cc1 [Compound 1005, N-(4-(5-(4-(4-Hydroxypiperidin-1-yl)benzamido)-1H-indazol-1-yl)phenyl)-1H-pyrrolo[3,2-b]pyridine-6-carboxamide] | 13%

Compound | Activity (%)
CCOC(=O)c1ccc(-n2ncc3cc(NC(=O)c4ccc(N5CCC(O)CC5)cc4)ccc32)cc1 [Compound 1030, Ethyl 4-(5-(4-(4-hydroxypiperidin-1-yl)benzamido)-1H-indazol-1-yl)benzoate] | 10%
N#CCNC(=O)c1ccc(-n2ncc3cc(NC(=O)c4ccc(N5CCC(O)CC5)cc4)ccc32)cc1 [Compound 1045, N-(Cyanomethyl)-4-(5-(4-(4-hydroxypiperidin-1-yl)benzamido)-1H-indazol-1-yl)benzamide] | 15%
O=C(NC1CC1)c1ccc(-n2cnc3cc(NC(=O)c4cc5ccccc5[nH]4)ccc32)cc1 [Compound 1060, N-(1-(4-(Cyclopropylcarbamoyl)phenyl)-1H-benzo[d]imidazol-5-yl)-1H-indole-2-carboxamide] | 18%
Cn1ccc(C(=O)Nc2ccc(-n3cc(C4CC4)c4cc(NC(=O)c5ccc(N6CCC(O)CC6)cc5)ccc43)cc2)c1 [Compound 1070, N-(4-(3-cyclopropyl-5-(4-(4-hydroxypiperidin-1-yl)benzamido)-1H-indol-1-yl)phenyl)-1-methyl-1H-pyrrole-3-carboxamide] | 15%
CN(C)c1ccc(C(=O)Nc2ccc(-c3nc4cc(NC(=O)c5ccc(N(C)C)cc5)ccc4[nH]3)cc2)cc1 [Compound 1700, 4-Dimethylamino-N-(4-(5-(4-dimethylaminobenzamido)-1H-benzimidazol-2-yl)phenyl)benzamide] | 17%
COC(=O)c1ccc(C(=O)Nc2ccc3[nH]c(-c4ccccc4)nc3c2)cc1 [Compound 1705, Methyl 4-(2-phenyl-1H-benzimidazol-5-ylcarbamoyl)-benzoate] | 12%
CN1CCN(c2ccc3nc(-c4ccc5[nH]c(-c6ccccc6)nc5c4)[nH]c3c2)CC1 [Compound 1710, 5-(6-(4-Methylpiperazino)-1H-benzimidazol-2-yl)-2-phenyl-1H-benzimidazole] | 11%
Nc1ccc(C(=O)Nc2ccc(-c3nc4c(Cl)c(NC(=O)c5ccc(N)cc5)ccc4[nH]3)cc2)cc1 [Compound 1715, 4-Amino-N-(4-(5-(4-aminobenzamido)-4-chloro-1H-benzimidazol-2-yl)phenyl)benzamide] | 10%
O=C(O)c1ccc(-c2nc3cc(NC(=O)c4ccc(N5CCCC5)cc4)ccc3[nH]2)cc1 [Compound 1719] | 17%
COc1cccc(C(=O)Nc2ccc3[nH]c(-c4ccccc4)nc3c2)c1 [Compound 1724, 3-Methoxy-N-(2-phenyl-1H-benzimidazol-5-yl)benzamide] | 13%
COc1ccc(-c2nc3cc(NC(=O)c4ccc(-n5cccc5)cc4)ccc3[nH]2)cc1 [Compound 1729, N-(2-(4-Methoxyphenyl)-1H-benzimidazol-5-yl)-4-pyrrolylbenzamide] | 14%
CN(C)c1ccc(C(=O)Nc2ccc3[nH]c(-c4ccc5c(ccn5C)c4)nc3c2)cc1 [Compound 1734, N-(2-(1-Methyl-1H-indol-5-yl)benzimidazol-5-yl)-4-dimethylaminobenzamide] | 20%
COC(=O)c1ccc(C(=O)Nc2ccc3[nH]c(-c4ccc(OC)cc4)nc3c2)cc1 [Compound 1739, Methyl 4-(2-(4-methoxyphenyl)-1H-benzimidazol-5-ylcarbamoyl)-benzoate] | 19%
CN(C)c1ccc(-c2nc3cc(-c4ccc5[nH]c(-c6ccc(N(C)C)cc6)nc5c4)ccc3[nH]2)cc1 [Compound 1744, 4,4′-(5,5′-Bibenzimidazole-2,2′-diyl)bis(N,N-dimethylaniline)] | 11%
O=C(Nc1ccccc1)c1ccc(-c2nc3cc(NC(=O)c4ccccc4)ccc3[nH]2)cc1 [Compound 1747, N-Phenyl-4-(5-benzamido-1H-benzimidazol-2-yl)benzamide] | 19%
